Target: 11β-HSD1 (Homo sapiens, UniProt P28845)
Assay: Inhibition of a microsomal preparation of 11β-HSD1, scintillation proximity assay, microsomes from CHO cells overexpressing human 11β-HSD1 (biological test example 2)
Type: biochemical
Design: expressed in transfected cells; host or cells: CHO cells (microsomes isolated from them)
Conditions: microsomes from CHO cells overexpressing human 11β-HSD1, SPA, [3H]cortisone, 90 minutes at room temperature; read-out: IC50, inhibitory activity on 11β-HSD 1
Method: All reactions were carried out at room temperature in 96 well clear flexible PET Microbeta plates (PerkinElmer). The assay begins by dispensing 49 μl of substrate solution [50 mM HEPES, pH 7.4, 100 mM KCl, 5 mM NaCl, 2 mM MgCl2, 2 mM NADPH and 160 nM [^3H]cortisone (1 Ci/mmol)] and mixing in 1 μL of the test compounds in dimethyl sulfoxide previously diluted in half-log increments (8 points) starting at 0.1 mM. After a 10 minute pre-incubation, 50 μL of enzyme solution containing microsomes isolated from CHO cells overexpressing human 11β-HSD1 (10-20 μg/ml of total protein) was added, and the plates were incubated for 90 minutes at room temperature. The reaction was stopped by adding 50 μl of the SPA beads suspension containing 10 μM 18β-glycyrrhetinic acid, 5 mg/ml protein A coated YSi SPA beads (GE Healthcare) and 3.3 μg/ml of anti-cortisol antibody (East Coast Biologics) in Superblock buffer (Bio-Rad). The plates were shaken for 120 minutes at room temperature, and the SPA signal corresponding to [^3H]cortisol was measured on a Microbeta plate reader.

Sequence of 11β-HSD1 (P28845 whole entry): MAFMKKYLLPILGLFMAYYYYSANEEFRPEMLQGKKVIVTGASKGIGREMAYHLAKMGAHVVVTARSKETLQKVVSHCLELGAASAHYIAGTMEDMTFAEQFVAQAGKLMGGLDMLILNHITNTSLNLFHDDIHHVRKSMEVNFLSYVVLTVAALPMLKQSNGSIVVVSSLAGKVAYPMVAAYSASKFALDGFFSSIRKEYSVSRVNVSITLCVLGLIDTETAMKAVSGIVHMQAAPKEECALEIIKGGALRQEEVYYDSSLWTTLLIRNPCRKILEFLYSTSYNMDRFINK

IC50: 0.5 nM
SMILES: C[C@@H](c1ccc(-c2csc(-n3ccccc3=O)n2)cc1)N1CC[C@](CC(C)(C)O)(c2ccccc2)OC1=O [Example 37, (S)-6-(2-hydroxy-2-methylpropyl)-3-((S)-1-{4-[2-(2-oxopyridin-1(2H)-yl)thiazol-4-yl]phenyl}ethyl)-6-phenyl-1,3-oxazinan-2-one]

From patent publication US9090605B2, “Substituted 5-,6- and 7-membered heterocycles, medicaments containing such compounds, and their use” (Vitae Pharmaceuticals, Inc., priority 2010, dated 2015)
